Measured values reported in patent publication US20230058623A1, “NOVEL HETEROARYL-TRIAZOLE COMPOUNDS AS PESTICIDES” (Bayer Aktiengesellschaft, priority 2019, published 2023).

Tests used:
Assay type in all cases: in vivo
[1] = test system: fall armyworm larvae (Spodoptera frugiperda); assay: Spodoptera frugiperda spray test; settings: 168 h, application rate 100 g/ha, after 7 days, maize leaf sections
In short: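 Maize leaf sections sprayed with compound diluted in water with 1000 ppm emulsifier, then infested with larvae once dry. Mortality (%) scored after 7 days; 100% = all caterpillars killed.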

[2] = test system: adult brown dog ticks (Rhipicephalus sanguineus); assay: Rhipicephalus sanguineus in-vitro contact test, adult brown dog ticks; settings: application rate 5 μg/cm^2 (=500 g/ha), after 48 hours, read-out: activity (efficacy: ticks dead or moribund)
In short: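 Acetone solution (900 ppm giving 5 μg/cm²) coated on inner walls of glass tubes; after drying, 5-10 adult ticks added and held at room temperature 48 h. Ticks then placed on 45-50 °C plate ≤5 min; those unable to climb away scored dead/moribund, efficacy as % affected.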

[3] = test system: Rhipicephalus (Boophilus) microplus larvae (strain Parkhurst, resistant against synthetic pyrethroids); assay: Rhipicephalus (Boophilus) microplus in-vitro contact test, larval cattle tick; settings: after 48 hours, read-out: activity (efficacy: larvae dead or moribund); for pest or weed control at 1 µg/cm2, 100 g/ha: application rate 1 μg/cm^2 (=100 g/ha); for pest or weed control at 5 µg/cm2, 500 g/ha: application rate 5 μg/cm^2 (=500 g/ha)
In short: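 Acetone solutions were coated onto glass tube walls, giving 5 μg/cm^2 at 900 ppm. Once dry, 20–50 pyrethroid-resistant Parkhurst larvae were added per tube and held 48 h at 27 °C and 85% RH. Efficacy was scored by negative geotaxis as the percentage of dead or moribund larvae.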

[4] = test system: adult engorged female ticks (Rhipicephalus microplus); assay: Rhipicephalus (Boophilus) microplus injection test; settings: 168 h, application rate 4 μg/tick, egg deposition after 7 days, read-out: activity (efficacy: infertile eggs)
In short: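 Five adult engorged female ticks injected into the abdomen with 1 μL compound solution in DMSO, then held in a climate chamber. Fertile egg deposition assessed after 7 days, unclear eggs kept until hatching (about 42 days); efficacy 100% = all eggs infertile, 0% = all fertile.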

[5] = test system: adult unfed cat fleas (Ctenocephalides felis); assay: Ctenocephalides felis oral test; settings: 48 h, read-out: activity (mortality)
Procedure: Ctenocephalides felis—Oral Test
Solvent: dimethyl sulfoxide
To produce a suitable preparation of active compound, 10 mg of active compound are dissolved in 0.5 mL solvent, and the concentrate is diluted with citrated cattle blood to the desired concentration.
Approximately 20 adult unfed cat fleas (Ctenocephalides felis) are placed in a flea chamber whose top and bottom is covered with gauze. A chamber whose bottom is sealed with parafilm, is filled with the blood-compound solution and placed on top of the flea chamber, so that the fleas can suck the blood. The blood chamber is heated to 37° C. whereas the flea chamber is kept at room temperature.
After 2 days mortality in % is determined. 100% means all the fleas have been killed; 0% means none of the fleas have been killed.

[6] = test system: green peach aphid (Myzus persicae); assay: Myzus persicae oral test; settings: 120 h, read-out: activity (mortality)
In short: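 Acetone stock (1 pbw compound/100 pbw solvent) diluted in water; mixed with sugar-supplemented IPL41 medium; parafilm-sealed; mixed aphid population sucks through film; mortality % read at 5 d.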

[7] = test system: adult mosquitoes Aedes aegypti strain MONHEIM; assay: Aedes aegypti test (AEDSAE surface treatment & contact assay); settings: surface concentration 20 mg/m^2, exposure 30 minutes, 24 hours after contact, read-out: efficacy (mortality)
Procedure: Aedes aegypti Test (AEDSAE Surface Treatment & Contact Assay)
(§1) Solvent: Aceton+2000 ppm rapeseed oil methyl ester (RME)
In order to produce a sufficient, active ingredient containing solution it is necessary to solve the test compound in the solvent-mix (acetone at 2 mg/ml/RME 2000 ppm). This solution is pipetted onto a glazed tile and after evaporation of the acetone, adult mosquitoes of the species Aedes aegypti strain MONHEIM are placed onto the dried surface. The exposure time is 30 minutes.
(§2) Mortality in percent (%) is determined 24 hours after contact of the insects to the treated surface. 100% mortality means that all tested insects are dead, whereas 0% means that no insect died.

[8] = test system: adult cat fleas (Ctenocephalides felis); assay: Ctenocephalides felis in-vitro contact test, adult cat flea; settings: application rate 5 μg/cm^2 (=500 g/ha), after 48 hours, read-out: activity (efficacy: fleas dead or moribund)
In short: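 Acetone solutions of compound were coated onto inner walls of glass tubes (900 ppm giving 5 μg/cm^2) and dried; 5-10 adult C. felis were then held 48 h at room temperature. Efficacy = % fleas dead or moribund, judged by inability to escape a 45-50° C heating plate within 5 min.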

[9] = test system: green peach aphid (Myzus persicae); assay: Myzus persicae spray test; settings: foliar, 120 h, after 5 days, Chinese cabbage leaf disks; for mortality at 100 g/ha: application rate 100 g/ha, read-out: activity (mortality)
In short: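 Chinese cabbage leaf disks infested with all aphid instars were sprayed with compound diluted in water containing emulsifier (1000 ppm). Mortality (%) was scored after 5 days, 100% meaning all aphids killed.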

[10] = test system: larvae of the banded cucumber beetle (Diabrotica balteata); assay: Diabrotica balteata spray test; settings: 168 h, application rate 100 g/ha (=32 μg/well), after 7 days, wheat seeds, read-out: activity (efficacy: seedlings grown)
In short: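 Wheat seeds germinated 1 day on agar were sprayed with compound diluted in water with 1000 ppm emulsifier, then infested with 10-20 Diabrotica balteata larvae. Efficacy in % scored after 7 days: 100% = seedlings grown as untreated, uninfected control; 0% = no seedlings grown.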

[11] = test system: brown planthopper (Nilaparvata lugens); assay: Nilaparvata lugens spray test; settings: 96 h, after 4 days, rice plants; for mortality at 500 g/ha: application rate 500 g/ha
Procedure: Nilaparvata lugens—Spray Test
To produce a suitable preparation of active compound, 1 part by weight of active compound is mixed with the stated amount of solvents and is diluted with water, containing an emulsifier concentration of 1000 ppm, to the desired concentration. Further test concentrations are prepared by dilution with emulsifier containing water.
Rice plants (Oryza sativa) are sprayed with a preparation of the active ingredient of the desired concentration and the plants are infested with the brown planthopper (Nilaparvata lugens).
After 4 days mortality in % is determined. 100% means all planthoppers have been killed and 0% means none of the planthoppers have been killed.

[12] = test system: larvae of the southern green stink bug (Nezara viridula); assay: Nezara viridula spray test; settings: 96 h, after 4 days, barley plants; for mortality at 500 g/ha: application rate 500 g/ha, read-out: activity (mortality)
In short: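 Barley plants sprayed with the active compound in emulsifier-containing water, then infested with stink bug larvae. Mortality scored in % after 4 days, with 100% meaning all insects killed.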

[13] = test system: adult flies Musca domestica strain WHO-N; assay: Musca domestica test (MUSCDO surface treatment & contact assay); settings: 24 hours after contact, read-out: efficacy (mortality)
Procedure: Musca domestica Test (MUSCDO Surface Treatment & Contact Assay)
as §1
In order to produce a sufficient, active ingredient containing solution it is necessary to solve the test compound in the solvent-mix (acetone at 2 mg/ml/RME 2000 ppm). This solution is pipetted onto a glazed tile and after evaporation of the acetone, adult flies of the species Musca domestica strain WHO-N are placed onto the dried surface. The exposure time is 30 minutes.
as §2

| SMILES | mortality at 100 g/ha [1] [%] | pest or weed control at 5 µg/cm2, 500 g/ha [2] [%] | pest or weed control at 1 µg/cm2, 100 g/ha [3] [%] | pest or weed control at 5 µg/cm2, 500 g/ha [3] [%] | pest or weed control at 0.004 mg [4] [%] | mortality at 100 ppm [5] [%] | mortality at 4 ppm [6] [%] | mortality at 20 mg/m2 [7] [%] | pest or weed control at 5 µg/cm2 [8] [%] | mortality at 100 g/ha [9] [%] | pest or weed control at 32 µg/disc, 100 g/ha [10] [%] | mortality at 100 g/ha ([11]; application rate 100 g/ha) [%] | mortality at 500 g/ha [11] [%] | mortality at 500 g/ha [12] [%] | mortality at 4 mg/m2 ([13]; surface concentration 4 mg/m^2, exposure 30 minutes) [%] | mortality at 20 mg/m2 ([13]; surface concentration 20 mg/m^2, exposure 30 minutes) [%] | mortality at 100 g/ha ([12]; application rate 100 g/ha) [%] | mortality at 500 g/ha ([9]; application rate 500 g/ha) [%] |
| --- | --- | --- | --- | --- | --- | --- | --- | --- | --- | --- | --- | --- | --- | --- | --- | --- | --- | --- |
| Cc1nc([C@H](C)NC(=O)c2cc(Cl)cc(C(F)(F)F)c2)n(-c2ccc(C(=O)N3CC(F)C3)cn2)n1 [Example I-20] | 100 | 100 | 90 | 100 | 100 | 100 | 100 | 80 to 100 | 100 | 90 |  |  |  |  |  |  |  |  |
| Cc1nc([C@H](C)NC(=O)c2cc(Cl)cc(C(F)(F)F)c2)n(-c2ccc(C(=O)N3CCC3)cn2)n1 [Example I-23] | 100 | 100 | 90 | 90 | 100 | 90 | 100 | 80 to 100 | 100 | 90 |  |  |  |  |  |  |  |  |
| COC1CN(C(=O)c2ccc(-n3nc(C)nc3[C@H](C)NC(=O)c3cc(Cl)cc(C(F)(F)F)c3)nc2)C1 [Example I-24] | 100 | 100 | 100 | 100 | 100 | 80 | 100 | 80 to 100 | 90 | 100 |  |  |  |  |  |  |  |  |
| C[C@@H]1CN(C(=O)c2ccc(-n3ncnc3[C@H](C)NC(=O)c3cc(Cl)cc(C(F)(F)F)c3)nc2)C[C@@H](C)O1 [Example I-40] |  | 100 | 100 | 100 | 100 | 90 | 100 | 80 to 100 |  | 90 | 100 |  |  |  |  |  |  |  |
| C[C@H](NC(=O)c1cc(Cl)cc(C(F)(F)F)c1)c1ncnn1-c1ccc(N2CCCC2=O)cn1 [Example I-54] |  |  |  |  |  |  | 100 |  |  |  |  | 100 |  |  |  |  |  |  |
| Cc1nc([C@H](C)NC(=O)c2cc(C(F)(F)F)cc(C(F)(F)F)c2)n(-c2ccc(C(=O)N3CC(C)(C)OC(C)(C)C3)cn2)n1 [Example I-78] | 100 | 100 | 100 | 100 |  |  |  |  |  |  |  |  | 100 | 100 |  |  |  |  |
| C[C@H](NC(=O)c1cc(C(F)(F)F)cc(C(F)(F)F)c1)c1ncnn1-c1ccc(C(=O)N2CC(=O)NC(=O)C2)cn1 [Example I-80] |  |  |  |  |  |  |  |  |  |  |  |  | 90 | 100 |  |  |  |  |
| Cc1nc([C@H](C)NC(=O)c2cc(OC(F)(F)F)cc(C3CC3)c2)n(-c2ccc(C(=O)N3C[C@@H](C)O[C@@H](C)C3)cn2)n1 [Example I-115] |  | 100 | 90 | 90 | 100 | 100 | 100 |  | 100 | 90 | 80 |  |  |  | 80 to 100 | 80 to 100 |  |  |
| C[C@H](NC(=O)c1cc(Cl)cc(S(C)(=O)=O)c1)c1ncnn1-c1ccc(C(=O)N2C[C@H](C)O[C@@H](C)C2)cn1 [Example I-122] |  |  |  |  |  |  | 100 |  | 80 |  |  |  | 90 | 100 |  |  | 90 | 90 |
| CCc1nc([C@H](C)NC(=O)c2cc(Br)cc(OC(F)(F)F)c2)n(-c2ccc(C(=O)N3CCOCC3)cn2)n1 [Example I-134] | 100 |  |  |  |  |  |  |  |  | 90 | 100 |  | 100 | 100 |  |  |  |  |
| C[C@@H]1CN(C(=O)c2cnc(-n3ncnc3[C@H](C)NC(=O)c3cc(OC(F)(F)F)cc(S(C)(=O)=O)c3)nc2)C[C@H](C)O1 [Example I-145] |  |  |  |  |  |  |  |  |  |  | 100 |  | 100 |  |  |  |  |  |
| C[C@H](NC(=O)c1cc(C(F)(F)F)cc(C(F)(F)F)c1)c1ncnn1-c1ncc(C(=O)N2CCCC2)cn1 [Example I-147] | 100 |  |  |  |  |  |  |  |  | 100 | 100 |  | 90 |  |  |  |  |  |
